According to patent US5783247A, “Flavoring composition containing oxidized triglyceride fats, fatty acids, of fatty acid derivatives” (Van Den Berg Foods Co., Division of Conopco, Inc., priority 1993, dated 1998):

Experiment: Induction period of fat with anti-oxidant
Format: physicochemical
Settings: calculated on the fat; induction period established at 100° C.
Source text: Preferably the anti-oxidant is selected from the group consisting of natural and nature-identical anti-oxidants, citric acid, tartaric acid and precursors thereof. The most preferred anti-oxidant is α-tocopherol and mixtures of tocopherols, which are commercially available. Alpha-tocopherol is commonly present as a native anti-oxidant in vegetable fat. About 0.1 wt. % (calculated on the fat) of alpha-tocopherol is sufficient for increasing the induction period of the fat by a factor of 1.5 (effective concentration). The induction period is established at 100° C., using the method described in J. Am. Oil. Chem. Soc. Vol. 63, 6 (1986), 192-195.

With `Cc1c(C)c2c(c(C)c1O)CCC(C)(CCCC(C)CCCC(C)CCCC(C)C)O2` (stereo not drawn) [alpha-tocopherol] the “effective concentration (increasing the induction period of the fat by a factor of 1.5)” value was “About 0.1 wt. %”.
